Literature values, collected in patent publication US20160075995A1, “SWEAT GLAND-DERIVED STEM CELLS AND METHODS OF USE” (priority 2014, published 2016).

Tests used:
[1] = published reports
[2] = DMSO

Question: For `c1cc(-c2cnn3cc(-c4ccc(OCCN5CCCCC5)cc4)cnc23)ccn1` [dorsomorphin], which toxicity [1] is on record?
Answer: low toxicity

Question: What about the solubility [2] of the same compound?
Answer: soluble in DMSO
